Results taken from the NIST ThermoML archive (doi:10.1021/acs.jced.9b00152).

How the values were obtained:
[1] = Liquid, Ebulliometric method (Recirculating still)
[2] = Boiling temperature at pressure P; settings: Liquid, Ebulliometric method (Recirculating still)

CC(=O)O [acetic acid]
Settings | Boiling temperature at pressure P [°C] | vapor or sublimation pressure [kPa]
[1], 345.03 K | – | 20
[1], 363.04 K | – | 40
[1], 374.54 K | – | 60
[1], 383.32 K | – | 80
[1], 390.93 K | – | 101.3
[2], 17 kPa | 68.2 | –
[2], 18.47 kPa | 69.72 | –
[2], 20.01 kPa | 71.88 | –
[2], 21.29 kPa | 73.26 | –
[2], 23.18 kPa | 75.34 | –
[2], 24.92 kPa | 77.20 | –
[2], 27.44 kPa | 79.73 | –
[2], 29.78 kPa | 81.86 | –
[2], 32.78 kPa | 84.39 | –
[2], 34.97 kPa | 86.11 | –
[2], 39.99 kPa | 89.89 | –
[2], 48.99 kPa | 95.41 | –
[2], 55.76 kPa | 99.12 | –
[2], 60.04 kPa | 101.39 | –
[2], 64.44 kPa | 103.51 | –
[2], 69.39 kPa | 105.90 | –
[2], 75.23 kPa | 108.5 | –
[2], 79.98 kPa | 110.17 | –
[2], 83.66 kPa | 111.67 | –
[2], 87.18 kPa | 112.92 | –
[2], 97.08 kPa | 116.43 | –
[2], 101.3 kPa | 117.78 | –

CCCOC(C)=O [propyl ethanoate]
Settings | Boiling temperature at pressure P [°C] | vapor or sublimation pressure [kPa]
[1], 329.58 K | – | 20
[1], 347.21 K | – | 40
[1], 358.6 K | – | 60
[1], 367.13 K | – | 80
[1], 374.66 K | – | 101.3
[2], 14.9 kPa | 49.47 | –
[2], 16.6 kPa | 51.86 | –
[2], 18.56 kPa | 54.62 | –
[2], 20 kPa | 56.43 | –
[2], 24.75 kPa | 61.56 | –
[2], 27.99 kPa | 64.63 | –
[2], 33.06 kPa | 68.81 | –
[2], 37.76 kPa | 72.40 | –
[2], 40.07 kPa | 74.06 | –
[2], 44.38 kPa | 76.90 | –
[2], 48.69 kPa | 79.58 | –
[2], 54.33 kPa | 82.51 | –
[2], 60.03 kPa | 85.5 | –
[2], 66.87 kPa | 88.7 | –
[2], 73.94 kPa | 91.7 | –
[2], 79.95 kPa | 93.98 | –
[2], 85.25 kPa | 95.92 | –
[2], 91.51 kPa | 98.26 | –
[2], 101.26 kPa | 101.51 | –

CC(=O)OC(C)C [1-methylethyl ethanoate]
[1]
Settings | vapor or sublimation pressure [kPa]
317.77 K | 20
334.75 K | 40
345.94 K | 60
354.29 K | 80
361.79 K | 101.3
